Among the test systems are EKVX NSCLC; HOP-62 NSCLC; IGROV1 ovarian; MOLT-4 leukemia; OVCAR-3 ovarian; OVCAR-5 ovarian; RXF 393 renal; SF-295 CNS; UACC-257 melanoma; UACC-62 melanoma.
Common to all, as to assay: growth of human tumour cells (NCI), 48 h

Several values for one entry are separate records, joined by “and”; a condition that tells them apart may be missing. Equal entries are not always repeated.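 All cell lines were grown in 96-well plates and treated with compound for 48 hours. Abbreviation: GI50, concentration required for 50% inhibition of growth. Definition used: TGI = concentration required for complete inhibition of growth.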

As for `S=c1nc(-c2ccnc(-c3nc(=S)[nH][nH]3)c2)[nH][nH]1`, the TGI with EKVX NSCLC, in the experiment with HOP-62 NSCLC, with IGROV1 ovarian, in the experiment on MOLT-4 leukemia, in the experiment on OVCAR-3 ovarian and in the experiment on OVCAR-5 ovarian was more than 100 µM each time. The TGI in the experiment on RXF 393 renal, in the experiment on SF-295 CNS, in the experiment with UACC-257 melanoma and in the experiment with UACC-62 melanoma was more than 100 µM each time.
With `COC(=O)/C(=N/NC(N)=O)C(C(=O)OC)C(=O)C(=O)Nc1ccc(Cl)cc1` (configuration not stated), the TGI in the experiment with EKVX NSCLC, in the experiment with HOP-62 NSCLC, in the experiment on IGROV1 ovarian, in the experiment on MOLT-4 leukemia, in the experiment with OVCAR-3 ovarian and in the experiment with OVCAR-5 ovarian was more than 100 µM throughout. The TGI with RXF 393 renal, with SF-295 CNS, with UACC-257 melanoma and with UACC-62 melanoma was more than 100 µM in each case.
For `O=c1[nH]c2ccccc2n1-c1n[nH]c2ccccc12`, the GI50 in the experiment on EKVX NSCLC is 29.7 µM; in the experiment with HOP-62 NSCLC, 33.2 µM; with IGROV1 ovarian, 8.29 µM; in the experiment on MOLT-4 leukemia, 17.3 µM; in the experiment with OVCAR-3 ovarian, 27.5 µM; in the experiment with OVCAR-5 ovarian it was 33.6 µM. Besides, the GI50 in the experiment on RXF 393 renal is 43.6 µM; in the experiment on SF-295 CNS, 25.4 µM; in the experiment on UACC-257 melanoma, 42.1 µM; in the experiment on UACC-62 melanoma, 33.6 µM. The TGI with EKVX NSCLC was more than 100 µM; in the experiment on HOP-62 NSCLC, more than 100 µM; in the experiment with IGROV1 ovarian, more than 100 µM; in the experiment on MOLT-4 leukemia, 84.9 µM; with OVCAR-3 ovarian it was more than 100 µM; with OVCAR-5 ovarian, more than 100 µM. Besides, the TGI in the experiment on RXF 393 renal was more than 100 µM; in the experiment on SF-295 CNS, 59.8 µM; in the experiment on UACC-257 melanoma, more than 100 µM; with UACC-62 melanoma, 96.7 µM.
Turning to `COc1cccc(C2NC(=S)NC(C)=C2C(=O)Nc2ccc(Cl)c(Cl)c2)c1` (configuration not stated), the GI50 in the experiment with EKVX NSCLC is 5.63 µM; with HOP-62 NSCLC, 11.6 µM; in the experiment on IGROV1 ovarian, 11.3 µM; in the experiment on MOLT-4 leukemia it was more than 50 µM; in the experiment on OVCAR-3 ovarian, 8.88 µM; in the experiment on OVCAR-5 ovarian it was 28.7 µM. Also, the GI50 in the experiment on RXF 393 renal is 9.14 µM; in the experiment on SF-295 CNS it was 9.72 µM; in the experiment with UACC-257 melanoma, 12.4 µM; in the experiment on UACC-62 melanoma, 8.2 µM. Besides, the TGI is 14.3 µM in the experiment on EKVX NSCLC; 20.3 µM in the experiment with HOP-62 NSCLC; 28.5 µM with IGROV1 ovarian; more than 50 µM in the experiment on MOLT-4 leukemia; 18.2 µM in the experiment on OVCAR-3 ovarian; more than 50 µM with OVCAR-5 ovarian. Besides, the TGI in the experiment on RXF 393 renal was determined as 22.3 µM; in the experiment with SF-295 CNS, 21.6 µM; with UACC-257 melanoma, 28.9 µM; in the experiment with UACC-62 melanoma it was 15.9 µM.
`COc1ccccc1NC(=O)C(CC(C(=O)Nc1ccccc1OC)/C(C)=N/Nc1ccc([N+](=O)[O-])cc1[N+](=O)[O-])/C(C)=N/Nc1ccc([N+](=O)[O-])cc1[N+](=O)[O-]` (configuration not stated): the TGI in the experiment with EKVX NSCLC, in the experiment with HOP-62 NSCLC, in the experiment on IGROV1 ovarian, in the experiment on MOLT-4 leukemia, with OVCAR-3 ovarian and in the experiment on OVCAR-5 ovarian was more than 100 µM each time. Also, the TGI in the experiment on RXF 393 renal, in the experiment on SF-295 CNS, in the experiment on UACC-257 melanoma and in the experiment with UACC-62 melanoma was more than 100 µM in each case.
For `CC1=C(C(=O)Nc2ccc(Cl)c(Cl)c2)C(c2ccccc2O)NC(=O)N1` (configuration not stated), the GI50 with EKVX NSCLC is 28.6 µM; with HOP-62 NSCLC it was more than 50 µM; with IGROV1 ovarian, more than 50 µM; in the experiment with MOLT-4 leukemia it was more than 50 µM; in the experiment on OVCAR-3 ovarian, 19.1 µM; in the experiment with OVCAR-5 ovarian, more than 50 µM. The GI50 in the experiment on RXF 393 renal is more than 50 µM; in the experiment with SF-295 CNS it was 40.3 µM; with UACC-257 melanoma, more than 50 µM; with UACC-62 melanoma, 35.1 µM. Further, the TGI in the experiment with EKVX NSCLC, in the experiment with HOP-62 NSCLC, in the experiment on IGROV1 ovarian, in the experiment with MOLT-4 leukemia, in the experiment on OVCAR-3 ovarian and in the experiment on OVCAR-5 ovarian was more than 50 µM each time. The TGI in the experiment with RXF 393 renal, with SF-295 CNS, in the experiment on UACC-257 melanoma and in the experiment on UACC-62 melanoma was more than 50 µM each time.
Regarding `CCSC(SCC)=C1C(=O)N(c2ccccc2)N=C1C`, the TGI in the experiment on EKVX NSCLC was determined as 28.5 µM; with HOP-62 NSCLC it was 53.7 µM; in the experiment with IGROV1 ovarian, 33.2 µM; with MOLT-4 leukemia it was 23.4 µM; with OVCAR-3 ovarian, 20.2 µM; with OVCAR-5 ovarian, 29.9 µM. Also, the TGI in the experiment with RXF 393 renal was 5.89 µM; in the experiment on SF-295 CNS, 73.5 µM; in the experiment with UACC-257 melanoma, 18.5 µM; with UACC-62 melanoma, 28 µM.
As for `O=C(Nc1ccccc1C(=O)N/N=C(\c1ccccc1)c1ccccn1)c1ccc(F)cc1`, the GI50 with EKVX NSCLC was 0.169 µM; in the experiment with HOP-62 NSCLC, 0.214 µM; with IGROV1 ovarian, 0.198 µM; in the experiment on MOLT-4 leukemia, 0.284 µM; with OVCAR-3 ovarian, 0.211 µM; in the experiment with OVCAR-5 ovarian, 0.671 µM. The GI50 in the experiment on RXF 393 renal is 0.576 µM; in the experiment on SF-295 CNS, 0.262 µM; with UACC-257 melanoma, 0.793 µM; in the experiment on UACC-62 melanoma, 0.308 µM. Also, the TGI in the experiment on EKVX NSCLC was more than 100 µM; in the experiment on HOP-62 NSCLC it was more than 38.5 µM; in the experiment on IGROV1 ovarian, more than 100 µM; in the experiment with MOLT-4 leukemia it was more than 100 µM; in the experiment with OVCAR-3 ovarian, more than 100 µM; with OVCAR-5 ovarian it was more than 100 µM. Further, the TGI in the experiment on RXF 393 renal is 9.17 µM; in the experiment with SF-295 CNS, more than 100 µM; with UACC-257 melanoma it was more than 100 µM; in the experiment on UACC-62 melanoma it was 2.03 µM.
In the case of `Nc1ccc(S(=O)(=O)Nc2cnc3c(Cl)cccc3n2)cc1`, the TGI is 712 µM with EKVX NSCLC; 188 µM in the experiment with HOP-62 NSCLC; more than 275 µM with IGROV1 ovarian; 565 µM with MOLT-4 leukemia; 411 µM with OVCAR-3 ovarian; more than 750 µM in the experiment on OVCAR-5 ovarian. Further, the TGI in the experiment on RXF 393 renal was > 31.6 µM and 460 µM; in the experiment with SF-295 CNS, 737 µM; in the experiment with UACC-257 melanoma, more than 750 µM; in the experiment on UACC-62 melanoma it was > 93.3 µM and 122 µM. Moreover, the GI50 was 24.6 µM with HOP-62 NSCLC; 1.16 µM in the experiment with IGROV1 ovarian; 65.6 µM in the experiment with MOLT-4 leukemia; more than 80.7 µM in the experiment with OVCAR-5 ovarian; 9.52 µM in the experiment on RXF 393 renal; more than 89.3 µM with UACC-257 melanoma. In addition, the GI50 in the experiment with UACC-62 melanoma is 56.3 µM.

(Values after PubChem BioAssay (NCI).)
